For orientation: share remaining means the share of the starting amount still present when the sample was taken.

Two compounds from ChEMBL document CHEMBL5608245, “Inhibition of the EphA2-Sam/Ship2-Sam Association through Peptide Ligands: Studying the Combined Effect of Charge and Aromatic Character” (J Med Chem, 2024) can be followed below.

Activity calls are given as the source filed them. No cut-off for these calls is given here. Where a SMILES comes first, the peptide text is derived from it.

Data set [1] in a line: in vitro. To be noted: cattle, cell culture medium containing 25% fetal bovine serum.
Description: Stability in cell culture medium containing 25% fetal bovine serum assessed as compound remaining at 80 uM at 37 degreeC measured after 4 hrs by RP-HPLC analysis
The target in data set [2] is Ephrin type-A receptor 2 (Homo sapiens) (UniProt P29317). In words: Binding affinity to recombinant human 15N-labeled EPHA2 Sam domain (904 to 968 residues) extracted from Escherichia coli BL21 (DE3) cells at 198 uM by NMR spectroscopy.
Sequence of Ephrin type-A receptor 2 (Homo sapiens) (P29317 whole entry, the tested form may be a part): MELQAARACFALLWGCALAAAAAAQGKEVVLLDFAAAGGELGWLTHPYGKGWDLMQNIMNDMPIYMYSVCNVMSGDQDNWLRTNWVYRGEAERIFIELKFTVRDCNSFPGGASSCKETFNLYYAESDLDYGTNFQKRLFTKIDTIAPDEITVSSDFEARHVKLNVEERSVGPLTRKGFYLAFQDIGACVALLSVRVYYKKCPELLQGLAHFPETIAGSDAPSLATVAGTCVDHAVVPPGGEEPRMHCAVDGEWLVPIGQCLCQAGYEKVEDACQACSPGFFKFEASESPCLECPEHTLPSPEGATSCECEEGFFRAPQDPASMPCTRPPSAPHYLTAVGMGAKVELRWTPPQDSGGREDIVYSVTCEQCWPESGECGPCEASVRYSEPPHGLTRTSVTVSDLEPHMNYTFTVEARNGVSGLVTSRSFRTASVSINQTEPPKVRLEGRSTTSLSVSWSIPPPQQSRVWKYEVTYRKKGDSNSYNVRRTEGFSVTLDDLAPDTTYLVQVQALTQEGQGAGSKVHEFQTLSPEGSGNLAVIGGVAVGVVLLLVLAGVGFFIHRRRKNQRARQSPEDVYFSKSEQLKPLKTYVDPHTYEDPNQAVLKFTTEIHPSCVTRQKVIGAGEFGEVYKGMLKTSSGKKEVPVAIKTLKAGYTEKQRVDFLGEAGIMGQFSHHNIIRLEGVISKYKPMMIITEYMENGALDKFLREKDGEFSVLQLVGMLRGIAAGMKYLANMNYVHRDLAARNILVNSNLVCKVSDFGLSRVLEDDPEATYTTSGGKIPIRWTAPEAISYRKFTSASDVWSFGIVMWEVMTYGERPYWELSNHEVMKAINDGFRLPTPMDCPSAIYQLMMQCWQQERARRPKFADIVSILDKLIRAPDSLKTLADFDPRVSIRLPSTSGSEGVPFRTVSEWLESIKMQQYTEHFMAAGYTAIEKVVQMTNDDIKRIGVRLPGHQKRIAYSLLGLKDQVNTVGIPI
Data set [3] can be described thus: Drug localization in human PC-3 cell cytoplasm at 50 uM incubated for 4 hrs by FITC staining based fluorescence microscopic analysis. It is filed as ADME, subcellular. Conditions: pc-3, 4 h.
Data set [4] deals with NHDF. In words: Cytotoxicity against human NHDF cells assessed as reduction in cell viability at 50 uM incubated for 4 hrs by crystal violet staining based assay. It is filed as toxicity.
For data set [5], the system named is PC-3. In words: Cytotoxicity against human PC-3 cells assessed as reduction in cell viability at 50 uM incubated for 4 hrs by crystal violet staining based assay. To be noted: pc-3, 4 h. The class given is toxicity.

Turning to `CC(=O)N[C@@H](CCCCN)C(=O)N[C@@H](CCCNC(=N)N)C(=O)N[C@@H](CCCCN)C(=O)N[C@@H](C)C(=O)N[C@@H](Cc1ccc(O)cc1)C(=O)N[C@@H](CCCCN)C(=O)N[C@@H](CCCNC(=N)N)C(=O)N[C@@H](CCCCN)C(=O)N[C@@H](C)C(=O)N[C@@H](Cc1ccc(O)cc1)C(=O)N[C@@H](CCCCN)C(=O)N[C@@H](CCCNC(=N)N)C(=O)N[C@@H](CCCCN)C(=O)N[C@@H](C)C(=O)N[C@@H](CO)C(N)=O` (Ac-KRKAYKRKAYKRKAS-NH2), in data set [1], the share remaining at 4 h, 80 µM is around 50%. For the same compound, in data set [2], the outcome was inactive.
Turning to `CSCC[C@H](NC(=O)[C@H](Cc1ccccc1)NC(=O)[C@H](CCCCN)NC(=O)[C@H](CC(=O)O)NC(=O)[C@H](CCC(=O)O)NC(=O)[C@H](CCCNC(=N)N)NC(=O)[C@H](CCCNC(=N)N)NC(=O)[C@@H](NC(=O)[C@@H]1CCCN1C(=O)CNC(=O)CNC(=O)CNC(=O)[C@H](CCC(N)=O)NC(=O)[C@@H]1CCCN1C(=O)[C@@H]1CCCN1C(=O)[C@H](CCCNC(=N)N)NC(=O)[C@H](CCCNC(=N)N)NC(=O)[C@H](CCCNC(=N)N)NC(=O)[C@H](CCC(N)=O)NC(=O)[C@H](CCCNC(=N)N)NC(=O)[C@H](CCCNC(=N)N)NC(=O)[C@H](CCCCN)NC(=O)[C@H](CCCCN)NC(=O)[C@H](CCCNC(=N)N)NC(=O)CNC(=O)[C@H](C)NC(C)=O)[C@@H](C)O)C(=O)N[C@@H](Cc1ccc(O)cc1)C(=O)N[C@@H](Cc1ccccc1)C(N)=O`, the Drug uptake entry in data set [3] is reported as “Active”. Further, the Activity entry in data set [4] and in data set [5] was “Toxic” each time.
